Measured values published in US20230123334A1, “AMINO LIPID COMPOUND, PREPARATION METHOD THEREFOR, AND APPLICATION THEREOF” (SHENZHEN SHENXIN BIOTECHNOLOGY CO., LTD., priority 2020, published 2023).

system: HEK293 cells; assay: Preliminary screening as DNA vectors, GFP transfection of HEK293 cells; assay type: cell-based; settings: amino lipid/DOPE liposome with 75 ng plasmid DNA (psin-EGFP-IRES-Puro); number of GFP-expressing cells divided by total nuclei (Hoechst)
Method: Cell line: HEK293 cells (ATCC CRL-1573™)
Medium: DMEM supplemented with 10% fetal bovine serum (Invitrogen)
Mode of screening: cell transfection on 96-well plates
Detection (readout): percentage of the number of GFP fluorescent cells relative to the total number of cells (the total number of cells was measured using nucleus dye Hoechst—see FIG. 2). Lipofectamine2000 (Invitrogen) was used as positive control, according to the manufacturer's instructions.
Method: an 8-channel pipette was used for sample addition. The contents shown were for a single well of a 96-well flat plate.
1. The compound (0.01 mmol) prepared in Example 1 was dissolved in 1 mL of anhydrous ethanol. After ultrasonically dissolved, 10 μL of the resultant amino lipid solution in ethanol was taken and mixed with 5 μL of DOPE solution in ethanol (0.01 m), and then to the obtained mixture was added 35 μL of 0.2M sodium acetate buffer (pH 5.6), and 50 μL of liposome solution was prepared by vortex at a constant rotating speed for 30 s. 4 μL was taken from the 50 μL liposome solution and added to 46 μL of 0.02M sodium acetate buffer (pH 5.6), and the final liposome solution was formed by vortex at a constant rotating speed for 30 s. 5 μL was taken from the final liposome solution and mixed with 75 ng plasmid DNA (psin-EGFP-IRES-Puro, Clontech) dissolved in 5 μL of 0.02 M sodium acetate buffer, and was allowed to stay at room temperature for 30 min to form a lipid/DNA transfection complex.
2. 10 μL of the lipid/DNA transfection complex was incubated at room temperature for 30 min, followed by addition of 90 μL of fresh resuspended cells (3-5×10^4 cells) and mixing with a pipette. 100 μL of cells+lipid/DNA complex was transferred to separate wells of a 96-well culture plate immediately, and placed in an incubator containing 5% CO2 at 37° C.
3. Hoechst33258 (Invitrogen) was added at a final concentration of 0.2 μg/mL to the cells 20 to 24 hours after initial cell transfection, and cultured in darkness at 37° C. for 15 min. Afterwards, the cells were washed once with a PBS solution, and then added with medium for culture for 20 to 24 h.
4. The cells were placed in a high-throughput confocal microscope (Molecular Devices ImageXpress), and four visual fields of the image of the cells were captured for each well, and images at three laser wavelengths were captured for each sample: bright field images of cells (FIG. 2(a) and FIG. 2(b)), Hoechst-staining images showing total nuclei (FIG. 2(c) and FIG. 2(d)) and GFP images showing success in transfection with the plasmid DNA and the expression of GFP (FIG. 2(e) and FIG. 2(f)). MetaXpress software was used to separately count the cells in the Hoechst-staining images and GFP images, and then the number of cells expressing GFP was divided by the total number of nuclei to give the absolute cell transfection efficiency. The absolute transfection efficiency was calculated as follows: […]

SMILES | Absolute DNA transfection efficiency in HEK293 cells [%]
CCCCCCCCCCCCCNc1nc(NCC2CCN(C)CC2)nc(SCCCCCCCCCC)n1 [S10N13 D10] | 3.2
CCCCCCCCCCCCCCCCNc1nc(NCC2CCN(C)CC2)nc(SCCCCCCCCCCC)n1 [S11N16 D10] | 3.9
CCCCCCCCCCCCCCCCCCNc1nc(NCCN2CCCC2)nc(SCCCCCCCCCCCC)n1 [S12N18 D3] | 3.9
CCCCCCCCCCCCCCCCSc1nc(NCCCCCCC)nc(NCC2CCN(C)CC2)n1 [S16N7 D10] | 3.4
CCCCCCCCCCCCCCCCSc1nc(NCCCCCCCCC)nc(NCCCN2CCN(C)CC2)n1 [S16N9 D9] | 9.5
CCCCCCCCCCCCCCSc1nc(NCCCCCCC)nc(NCCN(C)C)n1 [S14N7 D1] | 12.5
CCCCCCCCCCCCCCCCCCNc1nc(NCCN2CCCCC2)nc(SCCCCCC)n1 [S6N18 D4] | 3.5
CCCCCCCCCCCCCCCNc1nc(NCCN2CCOCC2)nc(SCCCCCCC)n1 [S7N15 D2] | 14.1
CCCCCCCCCCCCCCCCCCNc1nc(NCCN2CCCCC2)nc(SCCCCCCCCCCC)n1 [S11N18 D4] | 4.4
CCCCCCCCCCCCCCCNc1nc(NCCN(CC)CC)nc(SCCCCCCCCCCCCCCC)n1 [S15N15 D7] | 0.4
CCCCCCCCCCCCCCCCSc1nc(NCC2CCN(C)CC2)nc(SCCCCCCC)n1 [S7S16 D10] | 22.2
CCCCCCCCCCCCCCCCSc1nc(NCCN2CCCC2)nc(N(CCCCCCCCCCCC)CCCCCCCCCCCC)n1 [S16^2N12 D3] | 0.0
CCCCCCCCCCCCCCSc1nc(NCCCCCCCCCCCCC)nc(NCCN2CCN(C)CC2)n1 [S14N13 D5] | 1.9
CCCCCCCCCCCCNc1nc(NCCCN2CCOCC2)nc(SCCCCCCCCCCCC)n1 [S12N12 D8] | 0.0
CCCCCCCCCCCCCCCCCCSc1nc(NCCN(C)C)nc(SCCCCCC)n1 [S6S18 D1] | 9.8
CCCCCCCCCCCCCCCCCCSc1nc(NCCCN2CCN(C)CC2)nc(SCCCCCCC)n1 [S7S18 D9] | 13.1
CCCCCCCCCCCCCCCCCCNc1nc(NCCCN2CCN(C)CC2)nc(SCCCCCCCCC)n1 [S9N18 D9] | 15.8
CCCCCCCCCCCCCCCCSc1nc(NCCCCCCC)nc(NCCCN2CCOCC2)n1 [S16N7 D8] | 12.0
CCCCCCCCCCCCSc1nc(NCCN(C)C)nc(SCCCCCCC)n1 [S7S12 D1] | 8.2
CCCCCCCCCCCCCCCCSc1nc(NCCCCCCCCCCC)nc(NCCN2CCCCC2)n1 [S16N11 D4] | 5.8
CCCCCCCCCCCCCCCCNc1nc(NCCN2CCCCC2)nc(SCCCCCCCCCCCCCCCC)n1 [S16N16 D4] | 3.4
CCCCCCCCCCCCCCCCSc1nc(NCCCCCCCCCCCCCCC)nc(NCCN(CC)CC)n1 [S16N15 D7] | 0.6
CCCCCCCCCCSc1nc(NCCCN(C)C)nc(SCCCCCC)n1 [S6S10 D6] | 20.9
CCCCCCCCCCCCCCCCNc1nc(NCCN2CCCCC2)nc(SCCCCCCCCCC)n1 [S10N16 D4] | 4.4
CCCCCCCCCCCCCCCCCCNc1nc(NCCN(C)C)nc(SCCCCCC)n1 [S6N18 D1] | 21.0
CCCCCCCCCCCCCCCCCCSc1nc(NCCCCCCCCCCC)nc(NCCCN2CCN(C)CC2)n1 [S18N11 D9] | 2.9
CCCCCCCCCCCCCCCSc1nc(NCCN2CCN(C)CC2)nc(SCCCCCCC)n1 [S7S15 D5] | 14.9
CCCCCCCCCCCCCCCCCCNc1nc(NCCN2CCCCC2)nc(SCCCCCCCCCCCC)n1 [S12N18 D4] | 0.3
